Patent US20230072860A1, “ISOXAZOLINE OXIME FORMATE COMPOUND, PREPARATION METHOD THEREFOR, HERBICIDAL COMPOSITION AND USE THEREOF” (QINGDAO KINGAGROOT CHEMICAL COMPOUND CO., LTD., priority 2020, published 2023)

Columns and labels:
Experiment in all cases: Experiment on weeding effect in post-emergence stage
Type in all cases: in vivo
Conditions in all cases: dose 15 g a.i./ha, fresh weight control rate level
Echinochloa crusgalli = test system: Echinochloa crusgalli
Summary of the method: (§1)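 Greenhouse pot test; foliar spray at 2-3 leaves, 2 wk post-sowing; acetone/Tween 80/water with methyl oleate EC 1.5 liter/ha; 500–15 g a.i./ha; assessed at 3 wk; n=3.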

Veronica didyma Tenore = test system: Veronica didyma Tenore
Summary of the method: as §1

Abutilon theophrasti = test system: Abutilon theophrasti
Summary of the method: as §1

Amaranthus retroflexus = test system: Amaranthus retroflexus
Summary of the method: as §1

Eleusine indica = test system: Eleusine indica
Summary of the method: as §1

Galium aparine = test system: Galium aparine
Summary of the method: as §1

Setaria viridis = test system: Setaria viridis
Summary of the method: as §1

Leptochloa chinensis = test system: Leptochloa chinensis
Summary of the method: as §1

Digitaria sanguinalis = test system: Digitaria sanguinalis
Summary of the method: as §1

SMILES	weeding effect in post-emergence stage, Echinochloa crusgalli (level) (Echinochloa crusgalli)	weeding effect in post-emergence stage, Veronica didyma Tenore (level) (Veronica didyma Tenore)	weeding effect in post-emergence stage, Abutilon theophrasti (level) (Abutilon theophrasti)	weeding effect in post-emergence stage, Amaranthus retroflexus (level) (Amaranthus retroflexus)	weeding effect in post-emergence stage, Eleusine indica (level) (Eleusine indica)	weeding effect in post-emergence stage, Galium aparine (level) (Galium aparine)	weeding effect in post-emergence stage, Setaria viridis (level) (Setaria viridis)	weeding effect in post-emergence stage, Leptochloa chinensis (level) (Leptochloa chinensis)	weeding effect in post-emergence stage, Digitaria sanguinalis (level) (Digitaria sanguinalis)
COC/C(C)=N/OC(=O)C1(C)CC(c2cc(-n3c(=O)n(C)c(=S)n(C)c3=S)c(F)cc2Cl)=NO1 (stereo not drawn) [Compound 68]	5 (Level 5: growth control rate is above 85%)	5 (Level 5: growth control rate is above 85%)	5 (Level 5: growth control rate is above 85%)	5 (Level 5: growth control rate is above 85%)	5 (Level 5: growth control rate is above 85%)	5 (Level 5: growth control rate is above 85%)	5 (Level 5: growth control rate is above 85%)	5 (Level 5: growth control rate is above 85%)	5 (Level 5: growth control rate is above 85%)
Cn1c(=S)n(C)c(=S)n(-c2cc(C3=NOC(C)(C(=O)O/N=C/c4ccccc4)C3)c(Cl)cc2F)c1=O (stereo not drawn) [Compound 69]	5 (Level 5: growth control rate is above 85%)	5 (Level 5: growth control rate is above 85%)	5 (Level 5: growth control rate is above 85%)	5 (Level 5: growth control rate is above 85%)	5 (Level 5: growth control rate is above 85%)	5 (Level 5: growth control rate is above 85%)	5 (Level 5: growth control rate is above 85%)	5 (Level 5: growth control rate is above 85%)	5 (Level 5: growth control rate is above 85%)
C/C(=N\OC(=O)C1(C)CC(c2cc(-n3c(=O)n(C)c(=S)n(C)c3=S)c(F)cc2Cl)=NO1)c1ccccc1 (stereo not drawn) [Compound 70]	5 (Level 5: growth control rate is above 85%)	5 (Level 5: growth control rate is above 85%)	5 (Level 5: growth control rate is above 85%)	5 (Level 5: growth control rate is above 85%)	5 (Level 5: growth control rate is above 85%)	5 (Level 5: growth control rate is above 85%)	5 (Level 5: growth control rate is above 85%)	5 (Level 5: growth control rate is above 85%)	5 (Level 5: growth control rate is above 85%)
Cn1c(=S)n(C)c(=S)n(-c2cc(C3=NOC(C)(C(=O)ON=C(c4ccccc4)c4ccccc4)C3)c(Cl)cc2F)c1=O (stereo not drawn) [Compound 71]	5 (Level 5: growth control rate is above 85%)	5 (Level 5: growth control rate is above 85%)	5 (Level 5: growth control rate is above 85%)	5 (Level 5: growth control rate is above 85%)	5 (Level 5: growth control rate is above 85%)	5 (Level 5: growth control rate is above 85%)	5 (Level 5: growth control rate is above 85%)	5 (Level 5: growth control rate is above 85%)	5 (Level 5: growth control rate is above 85%)
Cn1c(=S)n(C)c(=S)n(-c2cc(C3=NOC(C)(C(=O)ON=C4CCCC4)C3)c(Cl)cc2F)c1=O (stereo not drawn) [Compound 74]	5 (Level 5: growth control rate is above 85%)	5 (Level 5: growth control rate is above 85%)	5 (Level 5: growth control rate is above 85%)	5 (Level 5: growth control rate is above 85%)	5 (Level 5: growth control rate is above 85%)	5 (Level 5: growth control rate is above 85%)	5 (Level 5: growth control rate is above 85%)	5 (Level 5: growth control rate is above 85%)	5 (Level 5: growth control rate is above 85%)
CCOC(=O)C(C)=NOC(=O)C1(C)CC(c2cc(-n3c(=O)n(C)c(=S)n(C)c3=S)c(F)cc2Cl)=NO1 (stereo not drawn) [Compound 75]	5 (Level 5: growth control rate is above 85%)	5 (Level 5: growth control rate is above 85%)	5 (Level 5: growth control rate is above 85%)	5 (Level 5: growth control rate is above 85%)	5 (Level 5: growth control rate is above 85%)	5 (Level 5: growth control rate is above 85%)	5 (Level 5: growth control rate is above 85%)	5 (Level 5: growth control rate is above 85%)	5 (Level 5: growth control rate is above 85%)
CCOC(=O)C(C)=NOC(=O)C1(C)CC(c2cc(-n3c(=O)n(C)c(=S)n(C)c3=O)c(F)cc2Cl)=NO1 (stereo not drawn) [Compound 123]	5 (Level 5: growth control rate is above 85%)	5 (Level 5: growth control rate is above 85%)	5 (Level 5: growth control rate is above 85%)	5 (Level 5: growth control rate is above 85%)	5 (Level 5: growth control rate is above 85%)	5 (Level 5: growth control rate is above 85%)	5 (Level 5: growth control rate is above 85%)	5 (Level 5: growth control rate is above 85%)	5 (Level 5: growth control rate is above 85%)
C/C(=N/OC(=O)C1(C)CC(c2cc(-n3c(=O)n(C)c(=S)n(C)c3=O)c(F)cc2Cl)=NO1)c1ccccc1 (stereo not drawn) [Compound 124]	5 (Level 5: growth control rate is above 85%)	5 (Level 5: growth control rate is above 85%)	5 (Level 5: growth control rate is above 85%)	5 (Level 5: growth control rate is above 85%)	5 (Level 5: growth control rate is above 85%)	5 (Level 5: growth control rate is above 85%)	5 (Level 5: growth control rate is above 85%)	5 (Level 5: growth control rate is above 85%)	5 (Level 5: growth control rate is above 85%)
Cn1c(=S)n(C)c(=O)n(-c2cc(C3=NOC(C)(C(=O)ON=C(c4ccccc4)c4ccccc4)C3)c(Cl)cc2F)c1=O (stereo not drawn) [Compound 140]	5 (Level 5: growth control rate is above 85%)	5 (Level 5: growth control rate is above 85%)	5 (Level 5: growth control rate is above 85%)	5 (Level 5: growth control rate is above 85%)	5 (Level 5: growth control rate is above 85%)	5 (Level 5: growth control rate is above 85%)	5 (Level 5: growth control rate is above 85%)	5 (Level 5: growth control rate is above 85%)	5 (Level 5: growth control rate is above 85%)
